Assay results published in ChEMBL document CHEMBL1201862, “PubChem BioAssay data set” (2004).
Activity calls are given as the source filed them.

Experiments:
[1] = P. falciparum Dd2 growth inhibitors, dose response, SYBR Green, dry powder samples (AID 1159566); assay type: functional, cell-based;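 further: potency for growth inhibition with lower SYBR green DNA signal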
[2] = P. falciparum 3D7-ScDHODH growth inhibitors, dose response, SYBR Green, dry powder samples (AID 1159570); assay type: functional, cell-based;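 further: parasite growth measured after 72 hours of compound exposure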
[3] = P. falciparum Dd2 growth inhibitors, dose response, SYBR Green, cherry-picked samples (AID 1159567); assay type: functional, cell-based
[4] = P. falciparum ATP4 D1247Y mutant growth inhibitors, dose response, NITD609-resistant line, SYBR Green, dry powder (AID 1159571); assay type: functional, cell-based;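 further: parasites synchronized at ring stage by sorbitol before testing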
[5] = target: T1, Corticotropin-releasing factor receptor 2/Corticotropin-releasing factor-binding protein (Homo sapiens, UniProt P24387+Q13324); assay: Dose Response confirmation of uHTS hits for small molecule antagonists of the CRF-binding protein and CRF-R2 receptor complex.; assay type: functional; conditions: read-out: IC50_Mean
T1 sequence (Q13324 whole entry): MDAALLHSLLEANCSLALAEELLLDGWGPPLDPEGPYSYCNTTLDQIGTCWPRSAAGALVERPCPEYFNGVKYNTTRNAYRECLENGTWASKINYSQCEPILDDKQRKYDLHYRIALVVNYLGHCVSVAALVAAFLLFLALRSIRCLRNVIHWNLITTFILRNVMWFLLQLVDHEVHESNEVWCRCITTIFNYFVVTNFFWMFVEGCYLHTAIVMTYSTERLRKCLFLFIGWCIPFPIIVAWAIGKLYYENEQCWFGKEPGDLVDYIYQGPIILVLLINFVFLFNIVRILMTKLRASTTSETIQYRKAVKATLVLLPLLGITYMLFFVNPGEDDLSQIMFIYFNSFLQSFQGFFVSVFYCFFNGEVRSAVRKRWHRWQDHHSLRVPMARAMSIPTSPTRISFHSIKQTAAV
T1 sequence (P24387 whole entry): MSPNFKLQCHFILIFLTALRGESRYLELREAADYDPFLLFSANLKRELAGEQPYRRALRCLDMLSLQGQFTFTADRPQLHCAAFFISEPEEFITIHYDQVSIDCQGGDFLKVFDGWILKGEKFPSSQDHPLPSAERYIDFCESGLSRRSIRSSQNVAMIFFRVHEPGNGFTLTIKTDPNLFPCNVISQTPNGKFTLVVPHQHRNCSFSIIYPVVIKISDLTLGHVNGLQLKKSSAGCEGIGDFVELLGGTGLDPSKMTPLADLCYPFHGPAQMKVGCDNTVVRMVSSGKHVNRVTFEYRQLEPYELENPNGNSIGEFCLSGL

[6] = target: T1, Corticotropin-releasing factor receptor 2/Corticotropin-releasing factor-binding protein; assay: activators of CRF receptor 2 with binding protein – uHTS hits, confirmation (AID 602473); assay type: functional; conditions: read-out: EC50_Mean
[7] = CRF-BP/CRF-R2 complex antagonists, dose response, cell-based, uHTS hits, 384-well (AID 651639); assay type: functional, Homo sapiens; conditions: read-out: IC50_Mean
BJ [8] = assay: cells; assay type: functional, cell-based; conditions: Homo sapiens
BJ [9] = assay: cytotoxicity toward BJ-TERT-LT-ST fibroblasts, dose response, cell-based, RAS-independent, luminescence (AID 1935); assay type: functional; conditions: Homo sapiens;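 further: BJ fibroblasts immortalized with TERT plus LT and ST oncogenes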
BJ [10] = assay: cytotoxicity toward BJ-TERT fibroblasts, dose response, cell-based, RAS-independent, luminescence (AID 1933); assay type: functional; conditions: Homo sapiens
[11] = cytotoxicity toward DRD oncogenic fibroblasts, dose response, cell-based, non-viral oncogenic, luminescence (AID 1934); assay type: functional; conditions: Homo sapiens
Vero [12] = assay: cells; assay type: functional; conditions: Chlorocebus sabaeus
Vero [13] = assay: cells; assay type: functional, cell-based; conditions: Chlorocebus sabaeus
[14] = ZM109 Env clade C HIV-1 fusion inhibitors, dose response, HeLa effector, CEM target cells, luciferase, cherry-pick (AID 652058); assay type: functional, cell-based
INS1 = assay: beta cell apoptosis inhibitors, cytokine rescue, dose response, luminescence, retest (AID 449756); assay type: functional, cell-based; conditions: Rattus norvegicus;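 further: cell death triggered by IL-1 beta plus TNF-alpha plus IFN-gamma mixture; protective hits raise ATP signal compared with cytokine alone wells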
[15] = target: T2, Microphthalmia-associated transcription factor (Homo sapiens, UniProt O75030); assay: TRPM1 promoter luciferase signal decrease, dose response, MITF inhibitor project, cell-based, SK-MEL-5, cherry-picked, set 3 (AID 493073); assay type: functional
T2 sequence (O75030 whole entry): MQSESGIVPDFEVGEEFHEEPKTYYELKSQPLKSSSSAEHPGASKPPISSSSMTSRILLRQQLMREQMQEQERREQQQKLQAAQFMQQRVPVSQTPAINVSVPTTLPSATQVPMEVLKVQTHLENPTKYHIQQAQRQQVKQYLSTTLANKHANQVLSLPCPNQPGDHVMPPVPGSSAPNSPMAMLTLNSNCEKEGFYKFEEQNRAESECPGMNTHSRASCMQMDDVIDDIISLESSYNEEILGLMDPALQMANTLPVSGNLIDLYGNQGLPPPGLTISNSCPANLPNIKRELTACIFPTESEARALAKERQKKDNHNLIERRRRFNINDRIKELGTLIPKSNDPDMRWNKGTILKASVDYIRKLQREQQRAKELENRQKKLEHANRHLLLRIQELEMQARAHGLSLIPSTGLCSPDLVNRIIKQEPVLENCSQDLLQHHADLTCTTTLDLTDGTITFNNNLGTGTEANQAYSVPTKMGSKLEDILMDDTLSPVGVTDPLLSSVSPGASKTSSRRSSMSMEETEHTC

Cytochrome P450 2C19 = Cytochrome P450 2C19 (Homo sapiens, UniProt P33261); assay: Cytochrome panel assay with activity outcomes. Panel member name: p450-cyp2c19 Compounds with AC50 equal or less than 10 uM are considered active; assay type: functional; conditions: read-out: AC50
Sequence of Cytochrome P450 2C19 (P33261 whole entry): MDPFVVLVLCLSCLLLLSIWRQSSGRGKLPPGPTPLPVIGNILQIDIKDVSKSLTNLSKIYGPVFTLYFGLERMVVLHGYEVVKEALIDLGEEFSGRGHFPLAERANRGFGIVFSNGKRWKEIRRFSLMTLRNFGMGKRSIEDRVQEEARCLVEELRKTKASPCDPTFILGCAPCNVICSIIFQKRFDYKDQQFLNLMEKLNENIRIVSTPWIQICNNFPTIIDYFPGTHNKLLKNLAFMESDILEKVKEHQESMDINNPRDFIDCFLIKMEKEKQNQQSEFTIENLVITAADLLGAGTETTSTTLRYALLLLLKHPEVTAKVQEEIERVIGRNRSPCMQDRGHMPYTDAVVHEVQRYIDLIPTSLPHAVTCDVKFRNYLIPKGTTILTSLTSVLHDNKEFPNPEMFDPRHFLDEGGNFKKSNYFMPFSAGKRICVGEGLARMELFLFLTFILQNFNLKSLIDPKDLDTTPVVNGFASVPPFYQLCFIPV

Cytochrome P450 2C9 = Cytochrome P450 2C9 (Homo sapiens, UniProt P11712)
Sequence of Cytochrome P450 2C9 (P11712 whole entry): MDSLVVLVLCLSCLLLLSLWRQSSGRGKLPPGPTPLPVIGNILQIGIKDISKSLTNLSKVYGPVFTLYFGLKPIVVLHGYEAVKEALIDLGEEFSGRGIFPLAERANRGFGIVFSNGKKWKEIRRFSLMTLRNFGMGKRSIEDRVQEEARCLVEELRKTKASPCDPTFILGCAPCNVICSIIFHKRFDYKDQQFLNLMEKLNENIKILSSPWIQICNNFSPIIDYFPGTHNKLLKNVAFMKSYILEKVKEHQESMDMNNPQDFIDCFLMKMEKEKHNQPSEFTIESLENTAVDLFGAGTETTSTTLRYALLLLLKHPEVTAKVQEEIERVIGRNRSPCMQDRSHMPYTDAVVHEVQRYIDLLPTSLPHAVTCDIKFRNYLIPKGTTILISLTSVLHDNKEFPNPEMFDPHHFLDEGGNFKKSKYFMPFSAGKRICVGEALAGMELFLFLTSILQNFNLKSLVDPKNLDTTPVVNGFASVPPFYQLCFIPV

[16] = target: Glyceraldehyde-3-phosphate dehydrogenase (Homo sapiens, UniProt P04406)
Sequence of Glyceraldehyde-3-phosphate dehydrogenase (P04406 whole entry): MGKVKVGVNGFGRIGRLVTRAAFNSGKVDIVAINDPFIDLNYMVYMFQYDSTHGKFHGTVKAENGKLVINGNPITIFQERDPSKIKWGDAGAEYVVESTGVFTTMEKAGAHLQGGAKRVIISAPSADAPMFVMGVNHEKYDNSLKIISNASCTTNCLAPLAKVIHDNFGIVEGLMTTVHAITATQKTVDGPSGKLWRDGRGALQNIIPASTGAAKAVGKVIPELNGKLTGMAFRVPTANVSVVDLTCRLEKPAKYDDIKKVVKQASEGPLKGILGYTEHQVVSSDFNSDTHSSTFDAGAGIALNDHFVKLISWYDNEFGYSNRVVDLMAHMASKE

Cytochrome P450 2D6 = Cytochrome P450 2D6 (Homo sapiens, UniProt P10635);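 further: CYP2D6 member of a cytochrome P450 panel assay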
Sequence of Cytochrome P450 2D6 (P10635 whole entry): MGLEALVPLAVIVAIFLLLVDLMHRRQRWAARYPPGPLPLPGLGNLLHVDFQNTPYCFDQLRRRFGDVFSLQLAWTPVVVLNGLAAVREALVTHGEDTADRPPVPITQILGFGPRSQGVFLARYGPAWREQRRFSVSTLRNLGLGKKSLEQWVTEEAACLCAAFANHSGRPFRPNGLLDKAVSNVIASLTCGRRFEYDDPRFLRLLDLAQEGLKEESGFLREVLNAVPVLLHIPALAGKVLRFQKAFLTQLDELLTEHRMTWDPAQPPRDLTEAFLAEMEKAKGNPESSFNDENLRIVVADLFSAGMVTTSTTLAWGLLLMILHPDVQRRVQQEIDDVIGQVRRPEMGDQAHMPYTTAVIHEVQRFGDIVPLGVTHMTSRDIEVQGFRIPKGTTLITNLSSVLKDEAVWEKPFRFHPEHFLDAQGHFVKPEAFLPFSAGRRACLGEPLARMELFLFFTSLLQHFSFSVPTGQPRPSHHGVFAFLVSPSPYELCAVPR

Cytochrome P450 3A4 = Cytochrome P450 3A4 (Homo sapiens, UniProt P08684);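 further: CYP3A4 tested as one member of a cytochrome P450 panel screen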
Sequence of Cytochrome P450 3A4 (P08684 whole entry): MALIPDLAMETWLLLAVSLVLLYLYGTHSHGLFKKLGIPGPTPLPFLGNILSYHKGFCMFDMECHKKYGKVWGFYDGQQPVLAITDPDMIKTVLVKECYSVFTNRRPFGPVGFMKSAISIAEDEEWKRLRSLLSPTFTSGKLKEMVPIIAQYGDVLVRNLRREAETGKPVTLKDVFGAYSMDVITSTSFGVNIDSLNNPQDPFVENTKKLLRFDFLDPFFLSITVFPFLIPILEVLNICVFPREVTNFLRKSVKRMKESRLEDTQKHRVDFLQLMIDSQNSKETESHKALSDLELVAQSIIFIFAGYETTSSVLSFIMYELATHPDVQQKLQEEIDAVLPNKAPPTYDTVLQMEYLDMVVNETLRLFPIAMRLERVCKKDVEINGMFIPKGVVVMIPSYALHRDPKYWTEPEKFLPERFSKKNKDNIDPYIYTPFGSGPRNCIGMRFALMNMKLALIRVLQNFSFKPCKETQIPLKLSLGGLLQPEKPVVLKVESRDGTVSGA

Caspase-6 = target: T3, Caspase-6 (Homo sapiens, UniProt P55212); assay: human caspase-6 inhibitors, dose response, biochemical, VEID-R110 fluorescence, cherry-pick (AID 720632)
T3 sequence (P55212 whole entry): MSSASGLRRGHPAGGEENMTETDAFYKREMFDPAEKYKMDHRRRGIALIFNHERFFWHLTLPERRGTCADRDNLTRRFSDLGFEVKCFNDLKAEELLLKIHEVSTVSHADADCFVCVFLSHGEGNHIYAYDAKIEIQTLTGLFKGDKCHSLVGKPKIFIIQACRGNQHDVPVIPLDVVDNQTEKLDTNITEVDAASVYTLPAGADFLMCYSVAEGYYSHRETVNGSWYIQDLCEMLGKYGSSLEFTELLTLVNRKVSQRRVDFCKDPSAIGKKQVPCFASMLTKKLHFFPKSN

[17] = A549 cell cytotoxicity, dose response, cytotoxicity control, plate reader, cherry-pick, antagonist series (AID 743412); assay type: functional, cell-based
[18] = target: T4, Heat shock factor protein 1 (Mus musculus, UniProt P38532); assay: inhibition of MG132-induced HSE-luciferase signal, confirmation, cell-based, NIH3T3, luminescence, dose retest (AID 2382); assay type: functional;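 further: NIH3T3 fibroblasts with HSF1-driven luciferase reporter stressed by proteasome inhibitor MG132; luminescence from HSF1-driven luciferase expression after 8 hours of MG132 stress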
T4 sequence (P38532 whole entry): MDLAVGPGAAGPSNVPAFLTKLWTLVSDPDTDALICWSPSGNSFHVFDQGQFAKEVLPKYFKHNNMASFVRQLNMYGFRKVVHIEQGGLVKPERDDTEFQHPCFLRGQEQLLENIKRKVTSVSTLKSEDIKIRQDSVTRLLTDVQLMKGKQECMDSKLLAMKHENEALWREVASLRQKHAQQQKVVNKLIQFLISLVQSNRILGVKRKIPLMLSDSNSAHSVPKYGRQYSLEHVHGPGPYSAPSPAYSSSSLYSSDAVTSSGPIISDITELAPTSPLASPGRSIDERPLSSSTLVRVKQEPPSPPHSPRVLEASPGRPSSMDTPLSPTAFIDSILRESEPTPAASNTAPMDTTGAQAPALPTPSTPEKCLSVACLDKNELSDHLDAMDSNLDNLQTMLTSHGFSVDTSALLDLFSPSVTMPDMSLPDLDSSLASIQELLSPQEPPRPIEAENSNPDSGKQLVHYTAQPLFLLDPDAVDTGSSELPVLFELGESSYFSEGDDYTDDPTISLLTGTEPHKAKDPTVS

[19] = HEK293 cell cytotoxicity, dose response, cytotoxicity control, plate reader, cherry-picked samples (AID 743446); assay type: functional, cell-based
[20] = HepG2 cell cytotoxicity, dose response, cytotoxicity control, plate reader, cherry-pick, antagonist series (AID 743416); assay type: functional, cell-based
[21] = LGR2 antagonists, dose response, cell-based, HEK293, CRE-luciferase reporter, cherry pick, set 2 (AID 743343); assay type: functional;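 further: transfected cells were stimulated with diluted bursicon conditioned medium after compound addition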
[22] = Shn3 3'UTR reporter inhibitors, dose response, cell-based, Clone20 osteoblasts, firefly luciferase, cherry-picked (AID 624132); assay type: functional;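 further: firefly luciferase luminescence from reporter carrying the Shn3 3'UTR in osteoblasts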
[23] = MC4R antagonists, dose response, counter-screen for LGR2 antagonist project, cell-based, plate reader, cherry pick (AID 743444); assay type: functional;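 further: transfected HEK 293 cells stimulated with alpha-MSH peptide; potency of inhibitors of the alpha-MSH evoked signal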

In the case of `COc1ccc(NC(=O)N(C)C[C@@H]2Oc3cc(-c4ccc(C)cc4)ccc3S(=O)(=O)N([C@H](C)CO)C[C@@H]2C)cc1`, the AC50 [1] is reported as 2.25 µM (active), the AC50 [2] is reported as 3.13 µM (active) and the AC50 [3] is reported as 2.58 µM (active). The AC50 [4] was 3.25 µM (active).
In the case of `CCN(CC)C(=O)[C@H]1C[C@H](CC(=O)NC/C=C(\C)CCC=C(C)C)C(=O)N2CCc3c([nH]c4ccc(Cl)cc34)[C@]12C`, the IC50 [5] is reported as < 0.368 µM (active), the EC50 [6] is reported as > 53 µM (inactive) and the IC50 [7] is reported as 1.72 µM (active).
For `COc1ccc2c(-c3cc4ccc(OCc5ccc(F)cc5)cc4oc3=O)cc(=O)oc2c1`, the EC50 (BJ [8]) was > 150 µM (not active), the EC50 (BJ [9]) was 7.45 µM (inconclusive) and the EC50 (BJ [10]) was 3.13 µM (active). For the same molecule, the EC50 [11] was 8.57 µM (active).
With `Cn1cc([N+](=O)[O-])c(C(=O)Nc2ccn(C34CC5CC(CC(C5)C3)C4)n2)n1` the CC50 (Vero [12]) was > 25 µM (active) and the IC50 (Vero [13]) was 24.3 µM (active).
In the case of `COc1ccccc1CN(C)C(=O)CN1CCN(C(=O)c2cccs2)CC1`, the AC50 [14] is reported as 32.8 µM (active).
For `C/C(=N\NC(=O)C(c1ccccc1)c1ccccc1)c1ccccn1`, the AC50 (INS1) was 1.3 µM (active) and the AC50 [15] was 5.96 µM (active).
With `CCOc1ccc(NC(=O)Cn2nnc(C(=O)NCc3ccccc3OC)c2N)cc1` the AC50 (Cytochrome P450 2C19) was 5.01 µM (inconclusive) and the AC50 (Cytochrome P450 2C9) was “inconclusive”.
In the case of `COc1cc(S(=O)(=O)Nc2cccnc2)c(OC)cc1Br`, the IC50 [16] is reported as > 100 µM (not active).
For `COc1ccccc1OCCCCCc1c(C)n[nH]c1C`, the AC50 (Cytochrome P450 2C19) was 1.58 µM (inconclusive), the AC50 (Cytochrome P450 2D6) was 11.2 µM (inconclusive) and the AC50 (Cytochrome P450 2C9) was “inconclusive”.
With `O=C1c2ccccc2C(=O)N1Cc1cc(-c2ccccc2Cl)no1` the AC50 (Cytochrome P450 3A4) was 39.8 µM (inconclusive), the AC50 (Cytochrome P450 2D6) was 3.16 µM (inconclusive) and the AC50 (Cytochrome P450 2C9) was “inconclusive”.
In the case of `O=[N+]([O-])c1ccc(F)c2c(O)[nH]nc12`, the AC50 (Caspase-6) is reported as 6.73 µM (active).
For `COc1ccc(-c2nsc3c(N4CCCCC4C)ncnc23)cc1` (stereo not drawn), the AC50 [17] was > 52 µM (inactive), the EC50 [18] was < 0.16 µM (active) and the AC50 [19] was > 52 µM (inactive). For the same molecule, the AC50 [20] was > 52 µM (inactive), the AC50 [21] was 0.135 µM (active) and the AC50 [22] was < 0.26 µM (active). The AC50 [23] was 0.134 µM (active).
